{
  "source": "patent US11910793B2",
  "about": "“Multifunctional agricultural adjuvant compositions” (WINFIELD SOLUTIONS, LLC, priority 2019, dated 2024)",
  "origin": "cited, not measured here",
  "conditions": "water at 0° C.",
  "data": [
    {"smiles": "N.N.O=S(=O)(O)O", "note": "[AMS, ammonium sulfate]", "values": [
      {"measurement": "amount of AMS dissolvable in water", "result": 41, "unit": "wt. %"}
    ]}
  ]
}
